Reference: ChEMBL document CHEMBL3603838, “Guanidinium compounds with sub-micromolar activities against Mycobacterium tuberculosis. Synthesis, characterization and biological evaluations” (Bioorg Med Chem, 2015)
≈ marks a conversion by molar mass, not a printed value.

Experiments:
[1] = test system: Mycobacterium tuberculosis; assay: Antimycobacterial activity against Mycobacterium tuberculosis H37Rv after 6 days by MTT assay; type: functional, organism-based; details: 144 h
[2] = Cytotoxicity against human MRC5 cells after 24 hrs; type: cell-based
[3] = Selectivity index, ratio of CC50 for human MRC5 cells to MIC for Mycobacterium tuberculosis H37Rv; type: toxicity, cell-based; details: read-out: Selectivity Index

| SMILES | IC50 [1] | MIC [1] | CC50 at 24 h [2] | selectivity ratio [3] |
| --- | --- | --- | --- | --- |
| N=C(N)NCCc1ccc(OCc2cccc(COc3ccc(CCNC(=N)N)cc3)c2)cc1.O=C(O)C(F)(F)F | 700 nM | 3.1 µM | 34.5 µg/mL | 16 |
| N=C(N)NCCc1cc2c(O)c(c1)Cc1cc(CCNC(=N)N)cc(c1O)Cc1cc(CCNC(=N)N)cc(c1O)Cc1cc(CCNC(=N)N)cc(c1O)C2 |  | 0.8 µM (≈ 0.612 µg/mL) | > 256 µg/mL | > 256 |
| CN[C@@H]1[C@H](O[C@H]2[C@H](O[C@H]3[C@H](O)[C@@H](O)[C@H](N=C(N)N)[C@@H](O)[C@@H]3N=C(N)N)O[C@@H](C)[C@]2(O)C=O)O[C@@H](CO)[C@H](O)[C@H]1O [STREPTOMYCIN] |  | 0.7 µM (≈ 0.407 µg/mL) |  |  |
| N=C(N)NCCc1ccc(OCc2ccc(COc3ccc(CCNC(=N)N)cc3)cc2)cc1.O=C(O)C(F)(F)F | 800 nM | 3.1 µM | 21 µg/mL | 10 |
| NNC(=O)c1ccncc1 [ISONIAZID] | 220 nM | 0.6 µM (≈ 0.0823 µg/mL) | > 10 µg/mL | > 125 |
| O=C(O)c1cn(C2CC2)c2cc(N3CCNCC3)c(F)cc2c1=O [CIPROFLOXACIN] | 600 nM | 2.5 µM (≈ 0.828 µg/mL) |  |  |
| N=C(N)NCCc1ccc(OCc2c(COc3ccc(CCNC(=N)N)cc3)c(COc3ccc(CCNC(=N)N)cc3)c(COc3ccc(CCNC(=N)N)cc3)c(COc3ccc(CCNC(=N)N)cc3)c2COc2ccc(CCNC(=N)N)cc2)cc1 | 3800 nM | 12.5 µM (≈ 15.3 µg/mL) | 26 µg/mL (≈ 21.2 µM) | 1 |
| N=C(N)NCCc1ccc(OCc2ccccc2)cc1 | 5900 nM | 25 µM (≈ 6.73 µg/mL) | 26 µg/mL (≈ 96.5 µM) | 2.6 |
| N=C(N)NCCc1ccc(OCc2cc(COc3ccc(CCNC(=N)N)cc3)c(COc3ccc(CCNC(=N)N)cc3)cc2COc2ccc(CCNC(=N)N)cc2)cc1.O=C(O)C(F)(F)F | 500 nM | 3.2 µM | 49 µg/mL | 11.5 |
| N=C(N)NCCc1ccc(OCc2cc(COc3ccc(CCNC(=N)N)cc3)cc(COc3ccc(CCNC(=N)N)cc3)c2)cc1.O=C(O)C(F)(F)F | 350 nM | 0.8 µM | 39.5 µg/mL | 49 |
| N=C(N)NCCc1ccc(OCc2ccccc2COc2ccc(CCNC(=N)N)cc2)cc1.O=C(O)C(F)(F)F | 1500 nM | 6.2 µM | 100 µg/mL | 24 |
| CC[C@@H](CO)NCCN[C@@H](CC)CO [ETHAMBUTOL] |  | 9.8 µM (≈ 2 µg/mL) | > 10 µg/mL | > 5 |
